Assay results: article PMC11988775, “Glycyl-tRNA Synthetase as a Target for Antiviral Drug Screening Against Influenza Virus” (International Journal of Molecular Sciences, 2025)
Where two headings read alike, the source gives them in different places.

Assays:
GlyRS [1] = target: T1, GlyRS (Homo sapiens, UniProt P41250); test: Fluorescence-based thermal shift assay (TSA); type: binding; details: shift between Tm of GlyRS with and without compound
T1 construct: made in house; host or cells: E. coli BL21(DE3)
T1 sequence (P41250 37-739): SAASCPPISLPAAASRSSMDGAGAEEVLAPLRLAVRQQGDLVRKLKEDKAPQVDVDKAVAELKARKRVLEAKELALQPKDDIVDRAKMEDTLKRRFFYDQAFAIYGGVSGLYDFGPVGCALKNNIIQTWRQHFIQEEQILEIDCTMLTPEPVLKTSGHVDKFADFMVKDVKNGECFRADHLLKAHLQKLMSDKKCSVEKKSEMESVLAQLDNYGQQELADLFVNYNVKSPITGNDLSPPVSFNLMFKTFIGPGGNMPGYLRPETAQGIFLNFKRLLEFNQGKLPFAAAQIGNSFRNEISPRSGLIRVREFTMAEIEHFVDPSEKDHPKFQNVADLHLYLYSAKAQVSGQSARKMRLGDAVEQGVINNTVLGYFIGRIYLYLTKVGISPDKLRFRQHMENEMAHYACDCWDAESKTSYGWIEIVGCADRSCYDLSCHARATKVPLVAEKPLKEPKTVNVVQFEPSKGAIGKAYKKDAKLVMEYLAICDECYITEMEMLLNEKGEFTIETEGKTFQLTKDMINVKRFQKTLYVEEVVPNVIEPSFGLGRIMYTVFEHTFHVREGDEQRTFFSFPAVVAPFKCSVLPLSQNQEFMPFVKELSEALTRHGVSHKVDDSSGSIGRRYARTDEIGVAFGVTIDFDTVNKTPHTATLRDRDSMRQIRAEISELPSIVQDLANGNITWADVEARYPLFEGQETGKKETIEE
Procedure: Thermal shift assays were conducted using a StepOnePlus 7 Flex Real-Time Cycler (Applied Biosystems, Waltham, MA, USA). The Protein Thermal Shift™ Kit dye from Thermo Fisher Scientific was employed to monitor the thermal stability of the protein by binding to its exposed hydrophobic regions. In each well of a 96-well Optical Reaction Plate (Applied Biosystems), a solution containing 14 μL of protein thermal shift buffer, 2 μL of diluted thermal shift dye (8×), 2 μL small molecule solution at 1 mM, and 2 μL of protein at 1 mg/mL was added. The 96-well polymerase chain reaction plates were then placed in the Life Technologies system and incubated at 25 °C for 10 min. Subsequently, the samples were gradually heated from 25 °C to 95 °C at a rate of 1 °C/min. During the thermal denaturation of the protein, the fluorescence signal of SYPRO orange at 490/530 nm excitation/emission wavelengths was recorded by the instrument at 30 s intervals. The fluorescence signal was continuously monitored and plotted against the temperature, with the midpoint of the protein unfolding transition defined as the melting temperature (Tm). To ensure accuracy, triplicate experiments were performed. The ΔTm represents the shift in Tm value between the GlyRS treated with compounds and the blank control.

GlyRS [2] = target: T1, GlyRS; test: Bio-layer interferometry (BLI) binding assay; details: for Kdis / Kon: immobilized GlyRS
Procedure: Binding experiments on the GlyRS proteins with various molecules were conducted using an Octet R8 system (ForteBio, Fremont, CA, USA). Purified His-tagged GlyRS proteins (500 μg/mL) were captured using Ni-NTA biosensors (ForteBio, Fremont, CA, USA), resulting in a saturation response of 4–5 nm after 300 s. Subsequently, the biosensors were immersed in diluted molecules (0.625–20 μM in assay buffer) for 120 s to measure the association signal, followed by transfer into Octet buffer to measure the dissociation signal for 100 s. Reference wells containing buffer instead of the tested compounds were included to correct for baseline shifts. A parallel set of Ni-NTA sensors immersed only in buffer served as negative reference controls to correct for nonspecific binding of the compounds to the biosensor surface. The signals were analyzed by a double reference subtraction protocol to deduce nonspecific and background signals and signal drifts caused by biosensor variability. All assays were performed by a standard protocol in 96-well black plates with a total volume of 200 μL/well at 30 °C. The generated data were analyzed using the Octet® Analysis Studio 12.2.2.26 for correction and curve fitting.

GlyRS [3] = target: T1, GlyRS; test: Enzyme inhibition assay (ATP consumption assay); type: biochemical; details: for IC50: ATP consumption assay, mean ± SD
Procedure: The ATP consumption assay was utilized to assess the enzymatic inhibitory activity of the compounds. The 30 μL reaction mixture consisted of 1 μM GlyRS, 25 μM ATP, 50 μM L-Glycine, 30 mM HEPES pH 7.5, 150 mM NaCl, 30 mM KCl, 40 mM MgCl2, and 0.1% bovine serum albumin (BSA), along with the corresponding concentrations of each compound. The reaction mixture was incubated at room temperature for 15 min. After incubation, 10 μL of the reaction reagent was transferred to a 384-well microplate, and the GlyRS enzyme activity was detected by adding 10 μL of the ATP Assay Kit (#S0026, Beyotime, Shanghai, China). Luminescence measurements were performed using a Synergy HTX multimode microplate Reader (BioTek Inc., Winooski, VT, USA). […]

in vitro = type: cell-based; details: human
Procedure: We then evaluated the antiviral effects of Lycobetaine and Scutellarein. To determine the optimal concentration of the small molecules, we used the CCK-8 assay to evaluate cell viability and estimate the CC50 value of the two drugs in A549 cells. In this experiment, the cells were exposed to varying concentrations of Lycobetaine and Scutellarein, and the CCK-8 reagent was added 24 h after drug treatment.

[4] = test system: A/PuertoRico/8/34 (H1N1) (PR8 virus); type: cell-based, Influenza A virus
GlyRS [5] = target: T1, GlyRS; test: Limited proteolysis analysis (trypsin, SDS-PAGE); details: trypsin at different concentrations, 1 h at 37 °C, versus unbound GlyRS
[6] = 1 μM GlyRS at 20 μM compounds, average of two independent experiments
[7] = BLI, immobilized His-tagged GlyRS, mean ± SD, three repeats, read-out: KD

Compound: CC(C)c1cc2c(c(O)c1O)[C@@]1(C(=O)O)CCCC(C)(C)[C@@H]1CC2 [Carnosic acid]
- △Tm (GlyRS [1]): −5.9 °C
- Kd (GlyRS [2]): 14.5 ± 0.19 µM
- Kdis (GlyRS [2]; BLI): 1.12 ± 0.17 (1/s) × 10^−2
- Kon (GlyRS [2]; BLI): 1.13 ± 0.26 (1/MS) × 10^3
- Relative Enzyme Activity (GlyRS [3]; [6]): 75.4%

Compound: Cc1ccc(S(=O)(=O)NCl)cc1 [Chloramine-T]
- △Tm (GlyRS [1]): −5.13 °C
- Kd (GlyRS [2]): 15.1 ± 1.8 µM
- Kdis (GlyRS [2]; BLI): 78.19 ± 17.95 (1/s) × 10^−2
- Kon (GlyRS [2]; BLI): 52.28 ± 13.31 (1/MS) × 10^3
- Relative Enzyme Activity (GlyRS [3]; [6]): 86.9%

Compound: Oc1c(I)cc(I)c2cccnc12 [Iodoquinol, reference compound]
- △Tm (GlyRS [1]): −11.97 °C
- Kdis (GlyRS [2]; BLI): 2.23 ± 0.49 (1/s) × 10^−2
- Kon (GlyRS [2]; BLI): 3.10 ± 0.51 (1/MS) × 10^3
- Kd (GlyRS [2]; [7]): 7.14 ± 0.41 µM
- Relative Enzyme Activity (GlyRS [3]; Figure 5K, bars A-J correspond to the compounds of panels A-J): 72.0%

Compound: Cc1c(OCC(F)(F)F)ccnc1C[S+]([O-])c1nc2ccccc2[nH]1 (centres unmarked) [Lansoprazole, reference compound]
- △Tm (GlyRS [1]): −5.03 °C
- Kdis (GlyRS [2]; BLI): 9.25 ± 3.64 (1/s) × 10^−2
- Kon (GlyRS [2]; BLI): 7.23 ± 2.14 (1/MS) × 10^3
- Kd (GlyRS [2]; [7]): 12.5 ± 1.63 µM
- Relative Enzyme Activity (GlyRS [3]; [6]): 72.3%

Compound: Oc1cc2c3c(c1)c1cc4c(cc1c[n+]3CC2)OCO4 [Lycobetaine]
- △Tm (GlyRS [1]): −13.01 °C
- Kdis (GlyRS [2]; BLI): 39.73 ± 11.18 (1/s) × 10^−2
- Kd (GlyRS [2]; [7]): 43.5 ± 16.4 µM
- Relative Enzyme Activity (GlyRS [3]; [6]): 8.0%
- IC50 (GlyRS [3]): 0.11 ± 0.05 µM
- CC50 at 24 h (in vitro): 16 ± 0.58 µM
- viral infection rate / viral titer [4]: effectively reduced the viral infection rate
- protein conformation change of GlyRS (distribution of proteolyzed fragments) (GlyRS [5]): alters the protein conformation of GlyRS

Compound: C[C@@H]1C[C@H]2[C@@H]3CCC4=CC(=O)C=C[C@]4(C)[C@@]3(Cl)[C@@H](O)C[C@]2(C)[C@@]1(OC(=O)c1ccco1)C(=O)CCl [Mometasone furoate, reference compound]
- △Tm (GlyRS [1]): −11.58 °C
- Kon (GlyRS [2]; BLI): 108.8 ± 67.42 (1/MS) × 10^3
- Kd (GlyRS [2]; [7]): 1.82 ± 0.36 µM
- Relative Enzyme Activity (GlyRS [3]; [6]): 91.2%

Compound: CC(=O)N[C@@H](C)C(=O)O [N-Acetyl-L-alanine]
- △Tm (GlyRS [1]): 5.96 °C
- Kdis (GlyRS [2]; BLI): 560 ± 194 (1/s) × 10^−2
- Kon (GlyRS [2]; BLI): 396.20 ± 85.48 (1/MS) × 10^3
- Kd (GlyRS [2]; [7]): 24.9 ± 4.33 µM
- Relative Enzyme Activity (GlyRS [3]; [6]): 88.1%

Compound: COC(=O)C1=C(C)NC(C)=C(C(=O)OCC(C)C)C1c1ccccc1[N+](=O)[O-] (centres unmarked) [Nisoldipine, reference compound]
- △Tm (GlyRS [1]): −8.96 °C
- Kdis (GlyRS [2]; BLI): 400 ± 94.49 (1/s) × 10^−2
- Kon (GlyRS [2]; BLI): 86.16 ± 27.50 (1/MS) × 10^3
- Kd (GlyRS [2]; [7]): 47.7 ± 7.18 µM
- Relative Enzyme Activity (GlyRS [3]; [6]): 67.3%

Compound: O=c1cc(-c2ccc(O)cc2)oc2cc(O)c(O)c(O)c12 [Scutellarein]
- △Tm (GlyRS [1]): −5.3 °C
- Kdis (GlyRS [2]; BLI): 1.09 ± 0.11 (1/s) × 10^−2
- Kon (GlyRS [2]; BLI): 3.96 ± 1.05 (1/MS) × 10^3
- Kd (GlyRS [2]; BLI, mean ± SD, three repeats (Table 2), read-out: KD): 2.88 ± 0.83 µM
- Relative Enzyme Activity (GlyRS [3]; [6]): 27.3%
- IC50 (GlyRS [3]): 2.22 ± 0.19 µM
- CC50 at 24 h (in vitro): 29.4 ± 0.76 µM
- viral infection rate / viral titer [4]: effectively reduced the viral infection rate
- protein conformation change of GlyRS (distribution of proteolyzed fragments) (GlyRS [5]): did not show significant differences compared to unbounded GlyRS

Compound: COC[C@H]1C[C@@H](c2nc(-c3ccc4c(c3)COc3cc5c(ccc6nc([C@@H]7CC[C@H](C)N7C(=O)[C@@H](NC(=O)OC)C(C)C)[nH]c65)cc3-4)c[nH]2)N(C(=O)[C@H](NC(=O)OC)c2ccccc2)C1 [Velpatasvir, reference compound]
- △Tm (GlyRS [1]): −5.4 °C
- Kdis (GlyRS [2]; BLI): 18.46 ± 0.98 (1/s) × 10^−2
- Kon (GlyRS [2]; BLI): 15.80 ± 0.71 (1/MS) × 10^3
- Kd (GlyRS [2]; [7]): 11.7 ± 1.13 µM
- Relative Enzyme Activity (GlyRS [3]; [6]): 78.5%
